Data reported in US20230321064A1, “Products for Treating the JNCL Disease” (Beyond Batten Disease Foundation, priority 2020, published 2023).
“Also recorded” adds a separate entry of the source. Like-named read-outs stand apart in the source and are kept apart here.

Tests used:
[1] = system: purified trehalase; test: In vitro colorimetric trehalase assay (glucose generation, 340 nm); assay type: biochemical; conditions: in the presence of miglustat; 340 nm absorbance
Experimental: To this aim, an in vitro colorimetric assay was performed to measure the rate of generation of glucose, the product of trehalose hydrolysis by trehalase. In the absence of miglustat, trehalose was rapidly hydrolysed by purified trehalase, and the glucose produced could be quantified at 340 nm absorbance. In the test conditions, the amounts of glucose detected increased over time to reach a plateau in […].

[2] = system: Cln3^Δex7-8 mice; test: Neuronal cell death, cleaved caspase-3 immunohistology in brain sections; assay type: in vivo, mouse; conditions: for cell death (cleaved CAS-3) in the VPM/VPL region: 12 months of age, oral, 2% Trehalose in drinking water, Miglustat in chow (FIG. 1E)
Experimental: (§1) Cln3^Δex7-8 mice were obtained from the Jackson Laboratory. Control (C57BL/6J) and Cln3^Δex7-8 mice were housed 3-4 per cage in a room with a 12-h light/12-h dark cycle. Food and water were provided ad libitum. All mice used in this study were analyzed at 8 and 12 months of age and were littermates produced by crossing heterozygous Cln3^Δex7-8 mice. Only males were used for this analysis. Investigators were blinded when analyzing the data, and no randomization was necessary.
(§2) For oral administration, Trehalose was dissolved in drinking water to a final concentration of 2% and changed twice a week. Trehalose-containing water was given to Cln3^Δex7-8 mice and WT mice by spontaneous oral administration starting at 21 days of age and continuing until the day the mice were sacrificed for neuropathology studies.
(§3) Miglustat was administered in mixture with the food pellet starting at 21 days of age and continuing until the day the mice were sacrificed for neuropathology studies. Miglustat food was prepared by TestDiet using the 5V5R rodent diet (LabDiet). Two concentrations were used: 1.2 g/Kg chow (indicated as “low concentration”) and 7.2 g/Kg chow (indicated as “high concentration”) and two separate groups of Cln3^Δex7-8 mice were fed with either diet. One additional group of Cln3^Δex7-8 l mice was fed with a combination of the low-concentration Miglustat food and 2% Trehalose water.
(§4) Twelve-month-old homozygous Cln3^Δex7-8 mice and age-matched controls (WT mice) were anaesthetized with isoflurane and transcardially perfused with PBS followed by 4% buffered paraformaldehyde in 0.1 M sodium phosphate buffer, pH 7.4. Brains were subsequently removed and postfixed overnight. Before sectioning, the brains were cryoprotected in a solution containing 30% sucrose in Tris-buffered saline (TBS: 50 mM Tris, pH 7.6). Consecutive 40 μm floating coronal sections were collected in 96-well plates. Series of sections were then stained with primary antisera against CD68 (AbD
(§5) Serotec, Cat. No. MCA1957), GFAP (DAKO, Cat. No. Z0334), Subunit C of mitochondrial ATP synthase (SCMAS; Abcam, Cat. No. ab181243), or cleaved caspase 3 (Asp175) (Cell Signaling, Cat. No. 9661S) followed by either rabbit anti-rat (VectorLab) or swine anti-rabbit (DAKO) secondary antibodies, and immunoreactivity detected with Vectastain ABC (avidin-biotin) kit (Vector) and diaminobenzidine as a chromogen.
(§6) Non-overlapping images were captured, on three consecutive sections, through each region of interest. All RGB images were captured via a live video camera (JVC, 3CCD, KY-F55B), mounted onto a Zeiss Axioplan microscope using a x 40 objective and saved as JPEGs. All parameters including lamp intensity, video camera set-up and calibration were maintained constant throughout image capturing. For quantification of storage and inflammation, images were analyzed using ImageJ analysis software (NIH), using an appropriate threshold that selected the foreground immunoreactivity above background. This threshold was then applied as a constant to all subsequent images analyzed per batch of animals and reagent used to determine the specific area of immunoreactivity for each antigen in each region. Data were plotted graphically as the mean percentage area of immunoreactivity per field ±s.e.m. for each region. For quantification of cell death, images were analyzed manually and scored for the presence of apoptotic nuclei. Data were plotted graphically as the mean number of apoptotic cells per field ±s.e.m. for each region. […]

[3] = system: Cln3^Δex7-8 mice; test: Microglial activation, CD68 immunohistochemistry in brain sections; assay type: in vivo, mouse
Experimental: as §1, §2, §3, §4, §5
as §6, with “Data were plotted graphically as the mean percentage area of immunoreactivity per field ±s.e.m. for each region.” left out, “nuclei.” for “nuclei. Data were plotted graphically as the mean number of apoptotic cells per field ±s.e.m. for each region.”
(S1BF), the primary visual (V1) cortex, and the dorsolateral geniculate (DLG) (Pontikis et al., 2005). To quantify microglial activation, antibodies against the microglial marker CD68 were used. […]

[4] = system: Cln3^Δex7-8 mice; test: Astrocytosis, GFAP immunohistochemistry in brain sections; assay type: in vivo, mouse
Experimental: as §1, §2, §3, §4, §5
Non-overlapping images were captured, on three consecutive sections, through each region of interest. All RGB images were captured via a live video camera (JVC, 3CCD, KY-F55B), mounted onto a Zeiss Axioplan microscope using a x 40 objective and saved as JPEGs. All parameters including lamp intensity, video camera set-up and calibration were maintained constant throughout image capturing. For quantification of storage and inflammation, images were analyzed using ImageJ analysis software (NIH), using an appropriate threshold that selected the foreground immunoreactivity above background. This threshold was then applied as a constant to all subsequent images analyzed per batch of animals and reagent used to determine the specific area of immunoreactivity for each antigen in each region. Data were plotted graphically as the mean percentage area of immunoreactivity per field ±s.e.m. for each region. For quantification of cell death, images were analyzed manually and scored for the presence of apoptotic nuclei. Data were plotted graphically as the mean number of apoptotic cells per field ±s.e.m. for each region. All analyses were performed blind to genotype and treatment.
[…] was also quantified by performing immunohistochemistry staining of brain sections of all test and control mice using anti-GFAP antibodies.

[5] = system: Cln3^Δex7-8 mice; test: Lysosomal storage in cerebellum (SCMAS staining); assay type: in vivo, mouse; conditions: 12 months of age
Experimental: as §1
For oral administration, Trehalose was dissolved in drinking water to a final concentration of 2% and changed twice a week. […]
as §5
Non-overlapping images were captured, on three consecutive sections, through each region of interest. […] For quantification of storage and inflammation, images were analyzed using ImageJ analysis software (NIH), using an appropriate threshold that selected the foreground immunoreactivity above background. […]

[6] = system: CLN3 1kb mutant human fibroblasts; test: Glycosphingolipid and lysosomal storage in CLN3 1 kb deletion mutant fibroblasts; assay type: cell-based
[7] = system: human CLN3 disease NPC derived cortical neurons; test: Glycosphingolipid and lysosomal storage in CLN3 patient iPSC/NPC derived cortical neurons; assay type: cell-based
[8] = system: cln3 morphant zebrafish embryos; test: Glycosphingolipid/SCMAS storage and eye phenotype in cln3 morphant zebrafish embryos; assay type: in vivo; conditions: miglustat 300 μM from 4 hpf for 88 h
[9] = cited from earlier work
[10] = Miglustat 50 μM during the final week of differentiation

CCCCN1C[C@H](O)[C@@H](O)[C@H](O)[C@H]1CO [Miglustat, (2R,3R,4R,5S)-1-butyl-2-(hydroxymethyl)piperidine-3,4,5-triol]
trehalase-mediated hydrolysis of trehalose to glucose (glucose generated) [1]: only a minimal amount of glucose was generated
cell death (cleaved CAS-3) in the VPM/VPL region [2]: largely suppressed
cell death (cleaved CAS-3) in the VPM/VPL region ([2]; listed as miglustat): prevented
programmed cell death (cleaved caspase-3 reactive cells) ([2]; regions analyzed: VPM/VPL, dLG, S1BF, V1 (FIGS. 1A-D), oral treatment): effective in abating programmed cell death
microglial activation (CD68) in the VPM/VPL ([3]; FIG. 2A): potently prevented microglial activation; also recorded: undistinguishable from WT mice
microglial activation (CD68) in the DLG ([3]; FIG. 2B): significantly decreased microglial activation
CD68 staining in the VPM/VPL ([3]; low concentrations of Miglustat (1.2 g/Kg chow), FIG. 2E): largely reduce CD68 staining
CD68 staining in the cerebellum ([3]; low concentrations of Miglustat, not shown): partially or largely reduce CD68 staining
astroglial activation (GFAP staining) in the VPM/VPL region ([4]; 12 months of age, oral, Miglustat even at low doses (FIG. 3E)): largely suppressed
astrocytosis (GFAP immunoreactivity) in the VPM/VPL ([4]; FIG. 3A): undistinguishable from that of WT mice
astrocytosis (GFAP immunoreactivity) in the DLG ([4]; FIG. 3B): prevented astrocytosis
astrocytosis (GFAP) in the S1BF ([4]; FIG. 3C): reduction in astrocytosis, although this did not reach statistical significance
increased storage in the cerebellum (SCMAS staining) [5]: no consistent effects
accumulation of SCMAS ([6]; 50 μM miglustat): significantly reduced
localisation of CtxB (ganglioside GM1) ([6]; 50 μM miglustat): restores sub-plasma membrane localisation
lysosomal inclusions by EM ([6]; 50 μM miglustat): notable absence of the dark membranous whorl-like inclusions
peak CtxB fluorescence (confocal line scans) ([6]; 50 μM miglustat): clearly reduces the peak CtxB fluorescence
swollen mitochondria with abnormal cristae (electron microscopy) ([6]; 50 μM miglustat): normalised
accumulating GSLs (ganglioside GM1 by CtxB, globosides Gb3/4 by SLxT) ([6]; 50 μM miglustat for 5 days): normalised; also recorded: significant reduction in the accumulating GSLs back to control levels
elevated lysosomal Ca2+ ([6]; 50 μM miglustat, ionomycin/GPN, Fura 2,AM): restored to healthy control levels
localisation of CtxB (ganglioside GM1) ([6]; 50 μM miglustat, listed as miglustat): normalisation in localisation of CtxB back to the plasma membrane
autophagy (CytoID) ([6]; 50 μM miglustat, live cells): normalisation in elevated autophagy
expansion of the lysosomal system (lysotracker staining) ([6]; 50 μM miglustat, live cells): normalisation in the visible expansion of the lysosomal system
excitotoxic glutamate induced Ca2+ signalling [7, 10]: normalisation of excitotoxic glutamate induced Ca^2+ signalling
expansion of the lysosomal and autophagic vacuole systems (lysotracker and cytoID staining) [7, 10]: reduction in expansion of the lysosomal and autophagic vacuole systems
lipid and protein storage levels (globoside, ganglioside GM1, SCMAS) [7, 10]: normalised; also recorded: reduced lipid and protein storage levels
lipid localisation [7, 10]: normalisation of lipid localisation
lysosomal Ca2+ content ([7]; Miglustat 50 μM, ionomycin/GPN, Fura 2,AM): normalisation of lysosomal Ca^2+ content
fluorescence intensity of glycolipids and of lipofuscin associated SCMAS storage [8]: normalised; also recorded: decrease, particularly in the brain, in fluorescence intensity
ganglioside GM1 storage within the brain (CtxB line scans) [8]: reduced; also recorded: normalised
retinal area [8]: restored to wild-type levels
Solubility in water ([9]; as a free base): (>1000 mg/mL as a free base).
Solubility in water [9]: Miglustat: Highly soluble in water
